Results reported in patent publication US6864219B2, “Substituted aryl ketones” (Bayer Aktiengesellschaft, priority 2000, dated 2005).

Experiment: log P determination by HPLC on reversed-phase column (C 18), EEC Directive 79/831 V.A8
Format: physicochemical
Settings: labelled a): acidic range, 0.1% aqueous phosphoric acid/acetonitrile gradient, 43° C.
Method: The log P values given in Table 1 were determined in accordance with EEC Directive 79/831 V.A8 by HPLC (High Performance Liquid Chromatography) on a reversed-phase column (C 18). Temperature: 43° C.
(a) Mobile phases for the determination in the acidic range: 0.1% aqueous phosphoric acid, acetonitrile; linear gradient of 10% acetonitrile to 90% acetonitrile—the corresponding data in Table 1 are labelled ^a).
(b) Mobile phases for the determination in the neutral range: 0.01 molar aqueous phosphate buffer solution, acetonitrile, linear gradient from 10% acetonitrile to 90% acetonitrile—the corresponding data in Table 1 are labelled ^b).

Compound	logP (Physical data, Table 1)
CCn1ncc(C(=O)c2ccc(Cl)c(OCCn3nc(C)n(C)c3=O)c2C)c1OCc1ccc(Br)cc1 [Example 12]	logP = 2.07^a)
CCn1ncc(C(=O)c2ccc(SC)c(OCCn3nc(C)n(C)c3=O)c2Cl)c1OCc1ccc(Br)cc1 [Example 14]	logP = 2.05^a)
CCn1ncc(C(=O)c2ccc(Cl)c(OCCn3nc(OC)n(C)c3=O)c2Cl)c1O [Example 15]	logP = 1.69^a)
CCn1ncc(C(=O)c2ccc(Cl)c(OCCn3nc(SC)n(C)c3=O)c2Cl)c1O [Example 16]	logP = 1.92^a)
CCn1ncc(C(=O)c2ccc(Cl)c(OCCn3nc(OC)n(CC)c3=O)c2Cl)c1O [Example 17]	logP = 1.93^a)
CCn1ncc(C(=O)c2ccc(Cl)c(OCCn3nc(COC)n(C)c3=O)c2Cl)c1O [Example 18]	logP = 1.62^a)
COCc1nn(CCOc2c(Cl)ccc(C(=O)C3=C(O)CCCC3=O)c2Cl)c(=O)n1C [Example 19]	logP = 2.06^a)
CCn1ncc(C(=O)c2ccc(SC)c(OC[C@@H]3CCC(=O)N3)c2Cl)c1O [Example 20]	(S enantiomer) logP = 1.60^a)
CSc1nn(CCOc2c(Cl)ccc(C(=O)C3=C(O)CCCC3=O)c2Cl)c(=O)n1C [Example 21]	logP = 2.39^a)
CCn1c(OC)nn(CCOc2c(Cl)ccc(C(=O)C3=C(O)CCCC3=O)c2Cl)c1=O [Example 22]	logP = 2.16^a)
CSc1ccc(C(=O)C2=C(O)CCCC2=O)c(Cl)c1OC[C@@H]1CCC(=O)N1 [Example 24]	(S enantiomer) logP = 1.98^a)
CCn1ncc(C(=O)c2ccc(Cl)c(OCCn3nc(OC)n(CC)c3=O)c2C)c1O [Example 25]	logP = 1.88^a)
CCn1c(OC)nn(CCOc2c(Cl)ccc(C(=O)C3=C(O)CCCC3=O)c2C)c1=O [Example 26]	logP = 2.15^a)
CCn1ncc(C(=O)c2ccc(Cl)c(OCCn3nc(SC)n(C)c3=O)c2C)c1O [Example 27]	logP = 2.11^a)
CSc1nn(CCOc2c(Cl)ccc(C(=O)C3=C(O)CCCC3=O)c2C)c(=O)n1C [Example 28]	logP = 2.38^a)
CCn1ncc(C(=O)c2ccc(Cl)c(OCCn3nc(OC)n(CC)c3=O)c2C)c1O [Example 29]	logP = 2.12^a)
CCn1ncc(C(=O)c2ccc(Cl)c(OCCn3nc(COC)n(C)c3=O)c2C)c1O [Example 30]	logP = 1.78^a)

Compound	logP (Physical data, Table 1)
CCn1c(OC)nn(CCOc2c(Cl)ccc(C(=O)C3=C(O)CCCC3=O)c2C)c1=O [Example 31]	logP = 2.38^a)
COCc1nn(CCOc2c(Cl)ccc(C(=O)C3=C(O)CCCC3=O)c2C)c(=O)n1C [Example 32]	logP = 2.04^a)
CCn1ncc(C(=O)c2ccc(SC)c(OCCn3nc(SC)n(C)c3=O)c2Cl)c1O [Example 33]	logP = 1.97^a)
CSc1ccc(C(=O)C2=C(O)CCCC2=O)c(Cl)c1OCCn1nc(SC)n(C)c1=O [Example 34]	logP = 2.36^a)
CCn1ncc(C(=O)c2ccc(Cl)c(OC[C@@H]3CCC(=O)N3)c2C)c1O [Example 35]	(S enantiomer) [α]D^20 = +2.3 logP = 1.67^a)
Cc1c(C(=O)C2=C(O)CCCC2=O)ccc(Cl)c1OC[C@@H]1CCC(=O)N1 [Example 36]	(S enantiomer) logP = 1.94^a)
CCn1ncc(C(=O)c2ccc(Cl)c(OC[C@@H]3CCC(=O)N3C)c2C)c1O [Example 37]	(S enantiomer) logP = 1.85^a)
Cc1c(C(=O)C2=C(O)CCCC2=O)ccc(Cl)c1OC[C@@H]1CCC(=O)N1C [Example 38]	(S enantiomer) logP = 2.10^a)
CN1C(=O)CC[C@H]1COc1c(Cl)ccc(C(=O)C2=C(O)CCCC2=O)c1Cl [Example 39]	(S enantiomer) logP = 2.12^a)
CCn1ncc(C(=O)c2ccc(Cl)c(OC[C@@H]3CCC(=O)N3C)c2Cl)c1O [Example 40]	(S enantiomer) logP = 1.67^a)
COCc1nn(CCOc2c(SC)ccc(C(=O)C3=C(O)CCCC3=O)c2Cl)c(=O)n1C [Example 44]	logP = 2.05^a)
CCn1ncc(C(=O)c2ccc(SC)c(OC[C@@H]3CCC(=O)N3C)c2Cl)c1O [Example 45]	(S enantiomer) logP = 1.68^a)
CSc1ccc(C(=O)C2=C(O)CCCC2=O)c(Cl)c1OC[C@@H]1CCC(=O)N1C [Example 46]	(S enantiomer) logP = 2.13^a)
O=C1CC[C@@H](COc2c(Cl)ccc(C(=O)C3=C(O)CCCC3=O)c2Cl)N1 [Example 47]	(S enantiomer) logP = 1.95^a)
CCn1ncc(C(=O)c2ccc(Cl)c(OC[C@@H]3CCC(=O)N3)c2Cl)c1O [Example 48]	(S enantiomer) logP = 1.51^a)
CCn1ncc(C(=O)c2ccc(Br)c(OC[C@@H]3CCC(=O)N3)c2Br)c1O [Example 60]	(S enantiomer) logP = 1.56^a)
O=C1CC[C@@H](COc2c(Br)ccc(C(=O)C3=C(O)CCCC3=O)c2Br)N1 [Example 61]	(S enantiomer) logP = 2.02^a)

Same assay, conditions: reversed-phase HPLC column (C 18), labelled a): acidic range; read-out: logP)

chromatographic logP	Compound
2.66	CCOC(=O)c1ccc(Cl)c(OCCn2nc(SC)n(C)c2=O)c1Cl [II-35, ethyl 2,4-dichloro-3-[2-(3-methylthio-4-methyl-5-oxo-1,2,4-triazolin-1-yl)-ethoxy]-benzoate]

Same assay, conditions: reversed-phase HPLC column (C 18), labelled a): acidic range; starting materials of formula (II)/(IIA); read-out: logP (Physical data, Table 2)

chromatographic logP	Compound
2.66	CCOC(=O)c1ccc(Cl)c(OCCn2nc(SC)n(C)c2=O)c1Cl [II-35, ethyl 2,4-dichloro-3-[2-(3-methylthio-4-methyl-5-oxo-1,2,4-triazolin-1-yl)-ethoxy]-benzoate]

Same assay, conditions: reversed-phase HPLC column (C 18), mobile-phase label not given; read-out: Log P (preparation examples)

chromatographic logP	Compound
1.94	COC(=O)c1ccc(Cl)c(OCCn2nc(C)n(C)c2=O)c1C [II-1, methyl 4-chloro-3-[2-(3′,4′-dimethyl-1′,2′,4′-1H-triazolin-5′-on-1′-yl)-ethoxy]-2-methyl-benzoate]
1.89	COC(=O)c1ccc(SC)c(OCCn2nc(C)n(C)c2=O)c1C [II-2, methyl 3-[2-(3′,4′-dimethyl-1′,2′,4′-1H-triazolin-5′-on-1′-yl)-ethoxy]-2-methyl-4-methylthio-benzoate]
1.76	CCOC(=O)c1ccc(S(C)(=O)=O)c(OCCn2nc(C)n(C)c2=O)c1C [II-3, ethyl 3-[2-(3′,4′-dimethyl-1′,2′,4′-1H-triazolin-5′-on-1′-yl)-ethoxy]-2-methyl-4-methylsulphonyl-benzoate]
1.37	Cc1c(C(=O)O)ccc(Cl)c1OCCn1nc(C)n(C)c1=O [II-4, 4-chloro-3-[2-(3′,4′-dimethyl-1′,2′,4′-1H-triazolin-5′-on-1′-yl)-ethoxy]-2-methyl-benzoic acid]
1.24	Cc1nn(CCOc2c(Cl)ccc(C(=O)Cl)c2Cl)c(=O)n1C [II-5, 2,4-dichloro-3-[2-(3′,4′-dimethyl-1′,2′,4′-1H-triazolin-5′-on-1′-yl)-ethoxy]-2-benzoyl chloride]
2.77	CCOC(=O)c1ccc(Cl)c(OCn2nc(OCC)n(C)c2=O)c1Cl [II-6, ethyl 3-(3′-ethoxy-4′-methyl-1′,2′,4′-1H-triazolin-5′-on-1′-yl)-methoxy-2,4-dichloro-benzoate]
1.74	CCOc1nn(COc2c(Cl)ccc(C(=O)O)c2Cl)c(=O)n1C [II-8, 3-(3′-ethoxy-4′-methyl-1′,2′,4′-1H-triazolin-5′-on-1′-yl)-methoxy-2,4-dichloro-benzoic acid]
